The subject of data set [1] is human colorectal carcinoma (HCT116). The data set can be described thus: MTT cytotoxicity assay, HCT116. The settings on record: 48 h exposure, read-out: IC50 ± SD, HCT116. Format: cell-based. On the procedure: (§1) The cytotoxic activity of the complexes obtained was screened against several human solid and hematopoietic cancer cell lines using the conventional MTT assay. To evaluate their selectivity for cancerous over non-cancerous cells, analogous tests were performed with pseudonormal human embryonic kidney (HEK293) and breast epithelial (HBL100) cell lines.
(§2) The cytotoxicity of the compounds obtained was investigated on human colorectal carcinoma (HCT116), breast cancer (MCF7), prostate adenocarcinoma (PC3), glioblastoma (U251), ovarian adenocarcinoma (Scov3), chronic myelogenous leukemia (K562 and K562/iS9), multiple plasmacytoma (AMO1), and acute lymphoblastic leukemia (H9) cell lines, as well as human embryonic kidney (HEK293) and mammary epithelial (HBL100 and HBL100/Dox) cells used as non-cancerous cell lineages. All the cell lines were obtained from American Type Culture Collection (ATCC). The tested compounds were initially dissolved in DMSO. Cisplatin was obtained from a commercial source (as an infusion concentrate in natural saline solution). The experiments were performed using the conventional MTT assay (ICN Biomedicals, Eschwege, Germany) according to the previously published procedure.
In general terms: Formazan colour is commonly taken as a measure of viable cells.

A further data set has as its system breast cancer (MCF7). In words: MTT cytotoxicity assay, MCF7. The settings on record: 48 h exposure, read-out: IC50 ± SD, MCF7. Format: cell-based, human. The protocol: as §1, §2
In data set [2] the test system is prostate adenocarcinoma (PC3). In words: MTT cytotoxicity assay, PC3. The settings on record: 48 h exposure, read-out: IC50 ± SD, PC3. In kind it is cell-based, human. The protocol: as §1, §2
For data set [3], the system named is human embryonic kidney (HEK293). In words: MTT cytotoxicity assay, HEK293. In kind it is cell-based. The settings on record: 48 h exposure, non-cancerous cells, read-out: IC50 ± SD, HEK293. On the procedure:
as §1, §2

Data set [4] concerns mammary epithelial cells HBL100. In words: MTT cytotoxicity assay, HBL100. Format: cell-based, human. The settings on record: 48 h exposure, non-cancerous cells, read-out: IC50 ± SD, HBL100. The protocol: as §1, §2
Data set [5] has as its system doxorubicin-resistant mammary epithelial cells HBL100/Dox. In words: MTT cytotoxicity assay, HBL100/Dox. In kind it is cell-based, human. The settings on record: 48 h exposure, doxorubicin-resistant clone, read-out: IC50 ± SD, HBL100/Dox. On the procedure: as §1, §2
The subject of data set [6] is chronic myelogenous leukemia (K562). The data set can be described thus: MTT cytotoxicity assay, K562. The settings on record: 48 h exposure, read-out: IC50 ± SD, K562. In kind it is cell-based, human. The protocol: as §1, §2
Data set [7] relates to doxorubicin-resistant subline of chronic myelogenous leukemia cells (K562/iS9). The data set can be described thus: MTT cytotoxicity assay, K562/iS9. In kind it is cell-based, human. The settings on record: 48 h exposure, read-out: IC50 ± SD, K562/iS9. The protocol: as §1, §2
For data set [8], the system named is multiple plasmacytoma (AMO1). The data set can be described thus: MTT cytotoxicity assay, AMO1. In kind it is cell-based, human. Conditions: 48 h exposure, read-out: IC50 ± SD, AMO1. The protocol:
as §1, §2

The subject of data set [9] is acute lymphoblastic leukemia (H9). The data set can be described thus: MTT cytotoxicity assay, H9. Format: cell-based, human. Conditions: 48 h exposure, read-out: IC50 ± SD, H9. The protocol: as §1
as §2, with “Cisplatin was obtained from a commercial source (as an infusion concentrate in natural saline solution).” left out

The subject of data set [10] is Bacillus subtillis (VKM B-501). The data set can be described thus: Agar well diffusion, B. subtillis. Format: cell-based. The protocol:
(§3) The microbial strains Bacillus subtillis (VKM B-501), Micrococcus luteus (VKM Ac-2230), and Groenewaldozyma auringiensis (VKM Y-2927) were used for antimicrobial activity tests. All strains were obtained from the All-Russian Collection of Microorganisms (VKM) at the Skryabin Institute of Biochemistry and Physiology of Microorganisms, Pushchino Scientific Center of Biological Research. B. subtilis and M. luteus were grown on the following medium (g/L): aminopeptide 60 mL; tryptone 5.0 g; yeast extract 1.0 g; soybean extract 30 mL; bacto-agar 15.0 g; final pH 7.2. G. auringiensis was grown on malt extract medium containing the following medium (g/L): malt extract 12.75; dextrin 2.75; glycerol 2.35; gelatin peptone 0.78; bacto-agar 15; final pH 5.4. The antimicrobial activity of ligand 17 and its cyclopalladated derivative 18 (both in the racemic form) was studied by the agar well diffusion method. The overnight grown culture of each strain (100 µL) was applied to the surface of the solid medium, then spread on agar plates using a glass spreader, and left for 30 min. The wells were cut in the culture plates using a sterilized glass tube (4 mm in diameter), and each compound sample was dissolved in DMSO to a final concentration of 0.25 or 2.5 mM (10 µL) and was placed in each well. After this, the plates were kept at room temperature for 3 h to improve the diffusion of the compounds and incubated at 28 °C for 24 h. DMSO (15%) was used as a negative control, while kanamycin (50 mg/mL) was used as a positive control. The antimicrobial activity was determined by measuring the inhibition zone around each well as a mean of three replicates.
For orientation: A growth-free zone around the sample is the usual read-out of agar diffusion tests.

Data set [11] has as its system Micrococcus luteus (VKM Ac-2230). The data set can be described thus: Agar well diffusion, M. luteus. In kind it is cell-based. The protocol:
as §3

Data set [12] concerns Groenewaldozyma auringiensis (VKM Y-2927). The data set can be described thus: Agar well diffusion, G. auringiensis. In kind it is cell-based. On the procedure:
as §3

The test system of data set [13] is doxorubicin-resistant mammary epithelial cells HBL100/Dox. The settings on record: cited from earlier work.
Data set [14] has as its system doxorubicin-resistant subline of chronic myelogenous leukemia cells (K562/iS9). Conditions: cited from earlier work.
Data set [15] can be described thus: Stability in DMSO solution by 31P NMR monitoring. Format: physicochemical. Conditions: at least for several days. The source says: The identities and structures of both free amides 2–8 and their cyclopalladated derivatives were unambiguously confirmed based on the IR and multinuclear NMR spectroscopic data (including different 2D NMR techniques), as well as elemental analyses, which are presented in detail in Section 3 (Materials and Methods) and Figures S1–S31 in the Supporting Information (SI). The realization of metalation of the central secondary amide unit in the resulting complexes was supported by the lack of NH proton singlets in the ^1H NMR spectra, as well as the absence of amide II and amide A bands in the IR spectra. The coordination of the thiophosphoryl pendant arm was evidenced by a strong downfield shift of the phosphorus resonance (ΔδP = 8.1–17.4 ppm) and the displacement of the P=S bond stretches towards lower frequencies, which reached up to 65 cm^−1. The coordination of the additional N- or S-donor unit was indirectly indicated by considerable shifts of the signals of CH/CH3 protons or quaternary carbon nuclei located in the close proximity to the heteroatom (for example, ΔδH for the methyl substituent in the thioether group of 13a,b was more than 0.65 ppm, while a coordination shift of the proton signal, corresponding to the CH unit adjacent to the nitrogen atom of the pyridine ring of 9, composed 0.45 ppm).

The mark [16] stands for this setting: agar well diffusion, 0.25 or 2.5 mM, racemic form.

As to `C[S+]1CC(=O)[N]2C(c3ccccc3)P(c3ccccc3)(c3ccccc3)=[S+][Pd-2]21[Cl]` (racemic) [Compound 13a, [κ^3-S,N,S-(L)Pd(II)Cl] complex], the IC50 in data set [1] turned out to be 17 ± 2 µM; in the data set with breast cancer (MCF7) it was 31 ± 6 µM; in data set [2], 30 ± 2.5 µM; in data set [3], 22 ± 6 µM; in [4] it was 32 ± 6 µM; in [5], 54 ± 5.6 µM. Besides, the IC50 in data set [6] was found to be 14.2 ± 2.2 µM; in [7] it was 15.2 ± 1.8 µM; in data set [8], 4.2 ± 0.3 µM; in data set [9], 4000 ± 600 nM.

With `O=C1c2ccc3ccccc3[n+]2[Pd-2]2([Cl])[S+]=P(c3ccccc3)(c3ccccc3)C(c3ccccc3)[N]12` (racemic) [Compound 10a, [κ^3-S,N,N-(L)Pd(II)Cl] complex], the IC50 in data set [1] is 22 ± 2 µM; in the data set on breast cancer (MCF7) it was above 65 µM; in data set [2] it was 33 ± 3 µM; in data set [3], 15 ± 4 µM; in [4], above 60 µM; in [5], above 60 µM.

Consider `CC(C)C(NC(=O)c1ccccn1)P(=S)(c1ccccc1)c1ccccc1` (stereo not drawn) [Compound 17], for which, in data set [10] (setting [16]), the “inhibitory effect on microorganisms, B. subtillis” value is given as “did not exert any inhibitory effect”. Further, the “inhibitory effect on microorganisms, M. luteus” value in data set [11] (setting [16]) was “did not exert any inhibitory effect”. Besides, in [12] (setting [16]), the “inhibitory effect on microorganisms, G. auringiensis” value is given as “did not exert any inhibitory effect”.

For `O=C1c2sc3ccccc3[n+]2[Pd-2]2([Cl])[S+]=P(c3ccccc3)(c3ccccc3)C(c3ccccc3)[N]12` (racemic) [Compound 12, [κ^3-S,N,N-(L)Pd(II)Cl] complex], the IC50 in data set [1] stood at 11.3 ± 3.1 µM; in the data set with breast cancer (MCF7) it was 19 ± 4.2 µM; in data set [2] it was 10 ± 2.8 µM; in data set [3], 6.5 ± 2.2 µM; in data set [4], 12 ± 3.5 µM; in data set [5], 6.7 ± 1.5 µM. Moreover, the IC50 came out at 4.2 ± 0.8 µM in data set [6], 2 ± 0.4 µM in data set [7], 3.7 ± 0.7 µM in [8] and 2200 ± 700 nM in data set [9].

For the molecule `COc1cccc2c1C(=O)c1c(O)c3c(c(O)c1C2=O)C[C@@](O)(C(=O)CO)C[C@@H]3O[C@H]1C[C@H](N)[C@H](O)[C@H](C)O1` [doxorubicin], the “times less active against the resistant clone (HBL100/Dox vs HBL100)” value in data set [13] is on record as “more than 80 times”. Besides, the “factor of decrease in efficiency, K562/iS9 vs parental K562” value in [14] is 20.

For the molecule `O=C1c2cccc3ccc[n+](c23)[Pd-2]2([Cl])[S+]=P(c3ccccc3)(c3ccccc3)C[N]12` (stereo not drawn) [Compound 11, [κ^3-S,N,N-(L)Pd(II)Cl] complex], the IC50 in data set [1] was found to be 18 ± 2 µM; in the data set with breast cancer (MCF7), 46 ± 4 µM; in [2] it was 31 ± 1 µM; in [3], 41 ± 4 µM; in data set [4] it was 29 ± 5 µM; in [5], 41 ± 1 µM.

As for `C[S+]1CC(=O)[N]2CP(c3ccccc3)(c3ccccc3)=[S+][Pd-2]21[Cl]` (stereo not drawn) [Compound 13b, [κ^3-S,N,S-(L)Pd(II)Cl] complex], the IC50 in data set [1] is 23 ± 7 µM; in the data set on breast cancer (MCF7), 40 ± 5 µM; in data set [2], 30 ± 2 µM; in data set [3], 34 ± 2 µM; in data set [4], 52 ± 4 µM; in data set [5], above 60 µM.

Turning to `O=C1c2ccc3ccccc3[n+]2[Pd-2]2([Cl])[S+]=P(c3ccccc3)(c3ccccc3)C[N]12` (stereo not drawn) [Compound 10b, [κ^3-S,N,N-(L)Pd(II)Cl] complex], the IC50 in [1] came out at 14 ± 4 µM; in the data set with breast cancer (MCF7), 31 ± 2 µM; in data set [2], 23 ± 1 µM; in data set [3] it was 20 ± 4 µM; in data set [4], 34.2 ± 2.8 µM; in data set [5], 46 ± 1.4 µM. Also, the “stability in solution (DMSO)” value in [15] was “stable in solution”.

For `C[S+]1c2ccccc2C(=O)[N]2C(c3ccccc3)P(c3ccccc3)(c3ccccc3)=[S+][Pd-2]21[Cl]` (racemic) [Compound 14, [κ^3-S,N,S-(L)Pd(II)Cl] complex], the IC50 in data set [1] came to 4.5 ± 1.1 µM; in the data set on breast cancer (MCF7) it was 9.2 ± 0.9 µM; in [2], 4.2 ± 1.4 µM; in [3], 4.9 ± 1.5 µM; in data set [4], 8.4 ± 0.5 µM; in data set [5] it was 2.1 ± 0.3 µM. Also, the IC50 was determined as 2.1 ± 0.2 µM in data set [6], 1.7 ± 0.2 µM in [7], 1.2 ± 0.3 µM in [8] and 2300 ± 500 nM in data set [9].

In the case of `NC[C@H]1O[C@H](O[C@H]2[C@H](O)[C@@H](O[C@H]3O[C@H](CO)[C@@H](O)[C@H](N)[C@H]3O)[C@H](N)C[C@@H]2N)[C@H](O)[C@@H](O)[C@@H]1O` [Km, kanamycin, reference compound], the “Inhibition Zone, B. subtillis (VKM B-501)” value in data set [10] (50 mg/mL, positive control) amounted to 10.0 ± 0.8 mm. For the same molecule, the “Inhibition Zone, M. luteus (VKM Ac-2230)” value in data set [11] (50 mg/mL, positive control) is 15.0 ± 1.0 mm. Moreover, the “Inhibition Zone, G. auringiensis (VKM Y-2927)” value in [12] (50 mg/mL, positive control) was 0 mm.

With `N.N.[Cl][Pt][Cl]` [cisplatin, reference compound], the IC50 was 18 ± 2 µM in [1]; 25 ± 4 µM in the data set with breast cancer (MCF7); 16 ± 3 µM in data set [2]; 12.5 ± 1.5 µM in data set [3]; 14.6 ± 3.6 µM in [4]; 23.6 ± 3.6 µM in [5]. Further, the IC50 in data set [6] turned out to be 15.5 ± 0.5 µM; in [7] it was 16 ± 2 µM; in data set [8], 3.2 ± 0.6 µM.
